Laboratory results reported in patent US20250326771A1, “PIPERAZINE DERIVATIVES USEFUL IN HIV THERAPY” (VIIV HEALTHCARE COMPANY, priority 2022, published 2025).
Like-named read-outs stand apart in the source and are kept apart here.

Assays:
[1] = tested on: Jurkat HIV-luciferase clones; experiment: Jurkat latency reversal assay; assay type: cell-based; details: Homo sapiens, 48 h; Jurkat latency reversal assay potency; read-out: Jurkat pEC50 (converted)
Summary of the method: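 A 1:1:1 mix of three Jurkat clones (C16, 115, N6) carrying integrated luciferase-expressing HIV proviruses, 5,000 cells/well, was exposed to 3-fold, 14-point compound titrations from 10 μM at 0.5% DMSO for 48 h at 37° C. Steady-Glo luminescence was fitted by four-parameter logistic regression to give EC50 and maximal percent activation relative to vehicle.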

cIAP1-BIR3 = cIAP1-BIR3 (Homo sapiens (Human), UniProt Q13490); experiment: BIR binding assay (FRET competition), cIAP1 BIR3; details: for cIAP1 BIR3 vs BIR2 separation window: fold separation (FS) for cIAP1
Sequence of cIAP1-BIR3 (Q13490 253-363): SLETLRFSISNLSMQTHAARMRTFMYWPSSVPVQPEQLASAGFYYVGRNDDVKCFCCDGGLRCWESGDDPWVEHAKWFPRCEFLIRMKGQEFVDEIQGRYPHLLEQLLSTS
Summary of the method: (§1)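 Compounds tested as 15-point, 3-fold series displacing 200 nM AlexaFluor647-labelled SMAC peptide from His-tagged BIR domain (cIAP1-BIR3 50 nM; cIAP1-BIR2 and cIAP2-BIR2 325 nM; XIAP-BIR3 100 nM), pH 7.4, 60 min. Eu-W1024 (2 nM) added 30 min; emission ratio fitted for IC50.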

cIAP1-BIR2 = cIAP1-BIR2 (Homo sapiens (Human), UniProt Q13490); experiment: BIR binding assay (FRET competition), cIAP1 BIR2
Sequence of cIAP1-BIR2 (Q13490 173-257): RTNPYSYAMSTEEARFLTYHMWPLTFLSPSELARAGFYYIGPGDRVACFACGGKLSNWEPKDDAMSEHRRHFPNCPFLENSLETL
Summary of the method: as §1

cIAP2-BIR3 = cIAP2-BIR3 (Homo sapiens (Human), UniProt Q13489); experiment: BIR binding assay (FRET competition), cIAP2 BIR3; details: for cIAP2 BIR3 vs BIR2 separation window: fold separation (FS) for cIAP2
Sequence of cIAP2-BIR3 (Q13489 238-349): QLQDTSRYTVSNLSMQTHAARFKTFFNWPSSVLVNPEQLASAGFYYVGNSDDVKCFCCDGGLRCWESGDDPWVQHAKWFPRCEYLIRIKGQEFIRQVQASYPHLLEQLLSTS

cIAP2-BIR2 = cIAP2-BIR2 (Homo sapiens (Human), UniProt Q13489); experiment: BIR binding assay (FRET competition), cIAP2 BIR2
Sequence of cIAP2-BIR2 (Q13489 158-242): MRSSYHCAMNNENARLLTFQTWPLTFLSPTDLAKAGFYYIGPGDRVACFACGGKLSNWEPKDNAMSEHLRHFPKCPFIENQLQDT
Summary of the method: as §1

XIAP-BIR3 = XIAP-BIR3 (Homo sapiens (Human), UniProt P98170); experiment: BIR binding assay (FRET competition), XIAP BIR3; details: for XIAP BIR3 vs BIR2 separation window: fold separation (FS) for XIAP
Sequence of XIAP-BIR3 (P98170 241-356): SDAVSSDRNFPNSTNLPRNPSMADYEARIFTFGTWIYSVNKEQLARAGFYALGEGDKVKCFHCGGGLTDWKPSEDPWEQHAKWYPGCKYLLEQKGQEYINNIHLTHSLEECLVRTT
Summary of the method: as §1

XIAP-BIR2 = XIAP-BIR2 (Homo sapiens (Human), UniProt P98170); experiment: BIR binding assay (FRET competition), XIAP BIR2; details: read-out: XIAP BIR2 (pIC50) (converted)
Sequence of XIAP-BIR2 (P98170 124-240): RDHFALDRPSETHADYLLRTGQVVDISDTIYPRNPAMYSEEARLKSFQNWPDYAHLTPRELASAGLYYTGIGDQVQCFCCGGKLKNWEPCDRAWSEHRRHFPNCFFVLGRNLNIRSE
Summary of the method: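 Competitive TR-FRET used His-tagged XIAP-BIR2 (200 nM) and 200 nM AlexaFluor647-labelled AVPIAQKSE SMAC peptide in HEPES buffer pH 7.4 with CHAPS, glycerol and DTT, incubated 60 min before 30 min with 2 nM Eu-W1024. The 615/665 nm ratio from a 15-point, 3-fold series was fit with a four-parameter model for IC50/pIC50.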

Row | Compound | EC50 [1] [nM] | IC50 (cIAP1-BIR3) [nM] | cIAP1 BIR3 vs BIR2 separation window (cIAP1-BIR3) | IC50 (cIAP1-BIR2) [µM] | IC50 (cIAP2-BIR3) [nM] | cIAP2 BIR3 vs BIR2 separation window (cIAP2-BIR3) | IC50 (cIAP2-BIR2) [µM] | IC50 (XIAP-BIR3) [nM] | XIAP BIR3 vs BIR2 separation window (XIAP-BIR3) | IC50 (XIAP-BIR2; FRET competition) [µM] | IC50 (XIAP-BIR2; FRET competition binding) [µM]
1 | C[C@@H]1CN(CC(=O)N2CC(C)(C)c3[nH]c(=O)c(Cc4ccc(F)cc4)cc32)[C@@H](CN2CCO[C@H](C(=O)NCC(O)CNC(=O)[C@@H]3CN(C[C@H]4CN[C@H](C)CN4CC(=O)N4CC(C)(C)c5[nH]c(=O)c(Cc6ccc(F)cc6)cc54)CCO3)C2)CN1 [Compound 137, (2S,2′S)-N,N′-(2-hydroxypropane-1,3-diyl)bis(4-(((2R,5R)-1-(2-(6-(4-fluorobenzyl)-3,3-dimethyl-5-oxo-2,3,4,5-tetrahydro-1H-pyrrolo[3,2-b]pyridin-1-yl)-2-oxoethyl)-5-methylpiperazin-2-yl)methyl)morpholine-2-carboxamide)] | 63.1 to 316 | 7.94 to 15.8 | +++ (10,000>FS>1,000) | 1 to 3.16 | 7.94 to 15.8 | +++ (10,000>FS>1,000) | 1 to 3.16 | 15.8 to 31.6 | ++++ (FS>10,000) | 10 to 51.3 | 
2 | C[C@@H]1CN(CC(=O)N2CC(C)(C)c3[nH]c(=O)c(Cc4ccc(F)cc4)cc32)[C@@H](CN2CCO[C@@H](COCCCCOC[C@H]3CN(C[C@H]4CN[C@H](C)CN4CC(=O)N4CC(C)(C)c5[nH]c(=O)c(Cc6ccc(F)cc6)cc54)CCO3)C2)CN1 [Example 113, 1,1′-(2,2′-((3R,3′R,6R,6′R)-(((2R,2′R)-((butane-1,4-diylbis(oxy))bis(methylene))bis(morpholine-2,4-diyl))bis(methylene))bis(3-methylpiperazine-6,1-diyl))bis(acetyl))bis(6-(4-fluorobenzyl)-3,3-dimethyl-1,2,3,4-tetrahydro-5H-pyrrolo[3,2-b]pyridin-5-one)] | 0.49 to 12.6 | 7.94 to 15.8 | +++ (10,000>FS>1,000) | 3.16 to 10 | 7.94 to 15.8 | +++ (10,000>FS>1,000) | 3.16 to 10 | 15.8 to 31.6 | ++++ (FS>10,000) |  | 10 to 51.3
3 | C[C@@H]1CN(CC(=O)N2CC(C)(C)c3[nH]c(=O)c(Oc4ccc(Br)cc4)cc32)[C@@H](CN2CCO[C@H](C(=O)NCc3ccc(CNC(=O)[C@@H]4CN(C[C@H]5CN[C@H](C)CN5CC(=O)N5CC(C)(C)c6[nH]c(=O)c(Oc7ccc(Br)cc7)cc65)CCO4)cc3)C2)CN1 [Compound 183, (2S,2′S)-N,N′-(1,4-phenylenebis(methylene)) bis(4-(((2R,5R)-1-(2-(6-(4-bromophenoxy)-3,3-dimethyl-5-oxo-2,3,4,5-tetrahydro-1H-pyrrolo[3,2-b]pyridin-1-yl)-2-oxoethyl)-5-methylpiperazin-2-yl)methyl)morpholine-2-carboxamide)] | 63.1 to 316 | 1.38 to 7.94 | +++ (10,000>FS>1,000) | 1 to 3.16 | 1.38 to 7.94 | +++ (10,000>FS>1,000) | 1 to 3.16 | 31.6 to 501 | +++ (10,000>FS>1,000) | 10 to 51.3 | 
4 | C[C@@H]1CN(CC(=O)N2CC(C)(C)c3[nH]c(=O)c(Cc4ccc(F)cc4)cc32)[C@@H](CN2CCC(CN(C)C(=O)c3cccc(C(=O)N(C)CC4CCN(C[C@H]5CN[C@H](C)CN5CC(=O)N5CC(C)(C)c6[nH]c(=O)c(Cc7ccc(F)cc7)cc65)CC4)c3)CC2)CN1 [Example 95, N^1,N^3-bis((1-(((2R,5R)-1-(2-(6-(4-fluorobenzyl)-3,3-dimethyl-5-oxo-2,3,4,5-tetrahydro-1H-pyrrolo[3,2-b]pyridin-1-yl)-2-oxoethyl)-5-methylpiperazin-2-yl)methyl)piperidin-4-yl)methyl)-N^1,N^3-dimethylisophthalamide] | 63.1 to 316 | 31.6 to 501 | ++ (1,000>FS>100) | 1 to 3.16 | 1.38 to 7.94 | +++ (10,000>FS>1,000) | 1 to 3.16 | 7.94 to 15.8 | ++++ (FS>10,000) |  | 10 to 51.3
5 | C[C@@H]1CN(CC(=O)N2CC(C)(C)c3[nH]c(=O)c(Oc4ccccc4)cc32)[C@@H](CN2CCO[C@H](C(=O)NCc3ccc(CNC(=O)[C@@H]4CN(C[C@H]5CN[C@H](C)CN5CC(=O)N5CC(C)(C)c6[nH]c(=O)c(Oc7ccccc7)cc65)CCO4)cc3)C2)CN1 [Compound 185, (2S,2′S)-N,N′-(1,4-phenylenebis(methylene)) bis(4-(((2R,5R)-1-(2-(3,3-dimethyl-5-oxo-6-phenoxy-2,3,4,5-tetrahydro-1H-pyrrolo[3,2-b]pyridin-1-yl)-2-oxoethyl)-5-methylpiperazin-2-yl)methyl)morpholine-2-carboxamide)] | 316 to 3310 | 15.8 to 31.6 | +++ (10,000>FS>1,000) | 3.16 to 10 | 1.38 to 7.94 | ++++ (FS>10,000) | 10 to 51.3 | 31.6 to 501 | +++ (10,000>FS>1,000) | 10 to 51.3 | 
6 | C[C@@H]1CN(CC(=O)N2CC(C)(C)c3[nH]c(=O)c(Cc4ccc(F)cc4)cc32)[C@@H](CN2CCO[C@H](COCc3c(F)c(F)c(COC[C@@H]4CN(C[C@H]5CN[C@H](C)CN5CC(=O)N5CC(C)(C)c6[nH]c(=O)c(Cc7ccc(F)cc7)cc65)CCO4)c(F)c3F)C2)CN1 [Example 85, 1,1′-(2,2′-((3R,3′R,6R,6′R)-(((2S,2'S)-((((perfluoro-1,4-phenylene)bis(methylene))bis(oxy))bis(methylene))bis(morpholine-2,4-diyl))bis(methylene))bis(3-methylpiperazine-6,1-diyl))bis(acetyl))bis(6-(4-fluorobenzyl)-3,3-dimethyl-1,2,3,4-tetrahydro-5H-pyrrolo[3,2-b]pyridin-5-one)] | 0.49 to 12.6 | 7.94 to 15.8 | +++ (10,000>FS>1,000) | 3.16 to 10 | 15.8 to 31.6 | +++ (10,000>FS>1,000) | 3.16 to 10 | 31.6 to 501 | ++++ (FS>10,000) |  | 10 to 51.3
7 | C[C@@H]1CN(CC(=O)N2CC(C)(C)c3[nH]c(=O)c(Cc4ccc(F)cc4)cc32)[C@@H](CN2CCN(Cc3cn(CC(=O)N4CCN(C[C@H]5CN[C@H](C)CN5CC(=O)N5CC(C)(C)c6[nH]c(=O)c(Cc7ccc(F)cc7)cc65)[C@H](C)C4)nn3)C[C@H]2C)CN1 [Compound 155] | 316 to 3310 | 1.38 to 7.94 | +++ (10,000>FS>1,000) | 1 to 3.16 | 7.94 to 15.8 | +++ (10,000>FS>1,000) | 1 to 3.16 | 15.8 to 31.6 | ++++ (FS>10,000) | 10 to 51.3 | 
8 | C[C@@H]1CN(CC(=O)N2CC(C)(C)c3[nH]c(=O)c(Cc4ccc(F)cc4)cc32)[C@@H](CN2CCO[C@H](C(=O)NCCCN(C)C(=O)[C@@H]3CN(C[C@H]4CN[C@H](C)CN4CC(=O)N4CC(C)(C)c5[nH]c(=O)c(Cc6ccc(F)cc6)cc54)CCO3)C2)CN1 [Compound 135, (S)-4-(((2R,5R)-1-(2-(6-(4-fluorobenzyl)-3,3-dimethyl-5-oxo-2,3,4,5-tetrahydro-1H-pyrrolo[3,2-b]pyridin-1-yl)-2-oxoethyl)-5-methylpiperazin-2-yl)methyl)-N-(3-((S)-4-(((2R,5R)-1-(2-(6-(4-fluorobenzyl)-3,3-dimethyl-5-oxo-2,3,4,5-tetrahydro-1H-pyrrolo[3,2-b]pyridin-1-yl)-2-oxoethyl)-5-methylpiperazin-2-yl)methyl)morpholine-2-carboxamido)propyl)-N-methylmorpholine-2-carboxamide] | 63.1 to 316 | 15.8 to 31.6 | +++ (10,000>FS>1,000) | 3.16 to 10 | 7.94 to 15.8 | +++ (10,000>FS>1,000) | 3.16 to 10 | 15.8 to 31.6 | ++++ (FS>10,000) | 10 to 51.3 | 
